In patent US9980976B2, “Use of REDD1 inhibitors to dissociate therapeutic and adverse atrophogenic effects of glucocorticoid receptor agonists” (Northwestern University, priority 2015, dated 2018):

Columns and labels:
human skin = assay: Skin atrophy in human volunteers treated with topical glucocorticoid; type: in vivo; details: 0.05% cream daily, 2-week treatment
Protocol: (§1) Glucocorticoid CBP was applied topically as a 0.05% cream to the skin of right arm of healthy human volunteers (age 32-65) once or every 24 h for 2 weeks. Untreated left arm skin was used as control. Whole human skin samples were used for the molecular biological studies.
(§2) Quantification of the epidermal width and number of basal keratinocytes (as the readouts for skin atrophy and hypoplasia of raft epidermis) was performed in dorsal skin and ORC sections stained with H&E. The number of dermal cells was determined on sections stained with Masson's trichrome in the upper (papillary) dermis that is distinguishable from the lower (reticular) dermis (Driskell et al, 2013). At least 10 individual fields per slide with at least three samples in each experimental group were counted using Axioplan2 microscope software (Carl Zeiss). All measurements are presented as % to corresponding control.

REDD1 [1] = assay: REDD1 mRNA expression in human skin (RT-PCR); type: in vivo; details: human skin treated with CBP 0.05% cream for 24 h-2 weeks
Protocol: as §1
Total RNA from murine epidermis, whole human skin, and cell cultures was isolated with RiboPure kit (Ambion, Life Technologies, Grand Island, N.Y., USA). Total RNA from murine s.c. adipose was isolated with RNeasy Lipid Tissue Kit (Qiagen, Valencia, Calif., USA). The RNA samples were treated with TURBOT™ DNase (Ambion). The gene expression was assessed using semi-quantitative two-step RT-PCR and quantitative Q-PCR. Reverse transcription was performed using 1 μg RNA, random hexamers, and M-MLV reverse transcriptase (Invitrogen, Life Technologies), according to manufacturer instructions. The gene-specific primers were designed with NCBI Primer-BLAST (data not shown, see Baida et al., EMBO, 2015, at Supplementary Table S4). Q-PCR with SYBR Green detection was performed on the Applied Biosystems® 7000 Real-Time PCR instrument (Life Technologies). […] For semi-quantitative PCRs, Taq DNA polymerase (Promega) was used, and PCR products were separated on 1.5% agarose gel and visualized using automated imaging system (Bio-Rad, Hercules, Calif., USA). […]

[2] = system: organotypic raft cultures of primary human epidermal keratinocytes (NHEK); assay: Hypoplasia/proliferation in 3-D organotypic raft cultures (ORC) of NHEK; type: cell-based; details: pGIPZ-infected ORCs, 7-day treatment with CBP 5 μM
Protocol: (§3) Three-dimensional (3-D) organotypic raft cultures (ORC) of human epidermis were made as described in Getsios et al (2009). Briefly, neonatal human epidermal keratinocytes (NHEK) were infected with shRNA- and pGIPZ-expressing lentiviruses followed, 48 h later, by selection for puromycin (2 μg/ml) resistance. Selected keratinocyte cultures were reseeded onto collagen gels with embedded J2-3T3 fibroblasts and cultured at the air-liquid interface as previously described for 3 days to allow the initial phase of epidermis formation. The standard ORC medium contains high 5×10^−7 M hydrocortisone. […]
as §2, with “All measurements are presented as % to corresponding control.” left out
The numbers of BrdU+, p63+, and total number of basal keratinocytes were evaluated in 10 fields of view in each skin/ORC sample under the microscope. […]

REDD1 [3] = assay: REDD1 expression in organotypic raft cultures (Q-PCR, Western blot); type: cell-based, human; details: control pGIPZ ORCs, short-term (6 h) and chronic (7 days) CBP
Protocol: as §3, with “hydrocortisone. In our experiments, ORC were cultured in the medium with 10^−8 M hydrocortisone during first 3 days and then were treated with glucocorticoid CBP (5×10^−6 M) or vehicle control (0.05% DMSO) for 7 days. Rafts were treated with BrdU (10^−7 M) 1 h before harvesting and fixed in formalin.” for “hydrocortisone.”
Total RNA from murine epidermis, whole human skin, and cell cultures was isolated with RiboPure kit (Ambion, Life Technologies, Grand Island, N.Y., USA). […] The gene expression was assessed using semi-quantitative two-step RT-PCR and quantitative Q-PCR. […] For semi-quantitative PCRs, Taq DNA polymerase (Promega) was used, and PCR products were separated on 1.5% agarose gel and visualized using automated imaging system (Bio-Rad, Hercules, Calif., USA). […]

GR = details: Schäcke et al, 2009; cited from earlier work

negative effect on basal keratinocytes (compared with FA-treated mice) (human skin)	SMILES	REDD1 mRNA (REDD1 [1])	decrease in number and proliferation (BrdU incorporation) of basal keratinocytes [2]	REDD1 mRNA and protein (REDD1 [3])	anti-inflammatory effect (GR)	skin atrophy (GR)
less pronounced	CCC(=O)O[C@]1(C(=O)CCl)[C@@H](C)C[C@H]2[C@@H]3CCC4=CC(=O)C=C[C@]4(C)[C@@]3(F)[C@@H](O)C[C@@]21C [CBP, clobetasol propionate]	strongly up-regulated	25-40%	induced REDD1 mRNA and protein	–	–
–	Cc1ccc2c(NC[C@](O)(CC(C)(C)c3cc(F)cc4c3OCC4)C(F)(F)F)cccc2n1 [ZK245186/mapracorat]	–	–	–	preserve the anti-inflammatory effect of glucocorticoids	do not induce skin atrophy
